Measurements from US20110039819A1, “SUBSTITUTED PHENOXYBENZAMIDES” (priority 2008, published 2011).
pIC50: −log10 of the molar value. Like-named read-outs stand apart in the source and are kept apart here.

Molecular target: T1, MEK1 (Homo sapiens, UniProt Q02750)
T1 construct: purchased Millipore 14-420 (GST-MEK1); 14-703 (Cot1); host or cells: Cot1: insect cells (SF21)
Assay: MEK1 activation kinase assay (Assay 2, HTRF; Cot1 phosphorylates GST-MEK1)
Type: biochemical
Experimental: MEK1 Activation Kinase Assay
The kinase Cot1 activates MEK1 by phosphorylating its activation loop. The inhibitory activity of compounds of the present invention on this activation of MEK1 was quantified employing the HTRF assay described in the following paragraphs.
As substrate for the kinase reaction the unactive C-terminally His6-tagged GST-MEK1 fusion protein (Millipore cat. no 14-420) was used.
Then the kinase reaction was started by the addition of 2 μl of a solution of Cot1 in assay buffer and the resulting mixture was incubated for a reaction time of 20 min at 22° C. The concentration of Cot1 in the assay was adjusted depending of the activity of the enzyme lot and was chosen appropriate to have the assay in the linear range, typical enzyme concentrations were in the range of about 2 ng/μl (final conc. in the 5 μl assay volume).
The resulting mixture was incubated 2 h at 22° C. to allow the binding of the phosphorylated GST-MEK1 to the anti-GST-XL665 and the Eu-cryptate labelled anti-phospho-MEK 1/2 antibody. Subsequently the amount of Ser217/Ser221-phosphorylated substrate was evaluated by measurement of the resonance energy transfer from the Eu-Cryptate-labelled anti-phospho-MEK antibody to the anti-GST-XL665.

[1] = mean values from 2 or more measurements, read-out: Assay 2 IC50 values (nanomolar) (MEK1 activation kinase assay) (values are mean values from 2 or more measurements)
[2] = representative example compounds, read-out: IC50 in MEK1 activation kinase assay

T1 sequence (Q02750 whole entry): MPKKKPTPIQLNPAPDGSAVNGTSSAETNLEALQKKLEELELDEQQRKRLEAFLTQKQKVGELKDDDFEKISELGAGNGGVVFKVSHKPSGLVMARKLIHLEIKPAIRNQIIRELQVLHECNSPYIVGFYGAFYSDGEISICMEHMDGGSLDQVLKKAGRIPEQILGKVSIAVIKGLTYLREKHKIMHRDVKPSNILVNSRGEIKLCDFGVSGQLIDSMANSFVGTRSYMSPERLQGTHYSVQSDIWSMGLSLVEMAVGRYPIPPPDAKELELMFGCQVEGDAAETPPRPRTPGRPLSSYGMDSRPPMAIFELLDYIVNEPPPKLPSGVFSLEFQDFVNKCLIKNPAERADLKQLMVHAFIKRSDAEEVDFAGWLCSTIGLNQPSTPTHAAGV

Row | SMILES | pIC50 [1] | pIC50 [2]
1 | CS(=O)(=O)N1CCN(CCOc2cc(F)cc(Nc3ccc(I)cc3F)c2C(N)=O)CC1 [Example 5.31, 4-Fluoro-2-(2-fluoro-4-iodo-phenylamino)-6-[2-(4-methanesulfonyl-piperazin-1-yl)-ethoxy]-benzamide] | 6.82 | –
2 | CN(C)S(=O)(=O)NCc1cccc(Oc2cc(F)cc(Nc3ccc(I)cc3F)c2C(N)=O)c1 [Example 5.67, 6-[3-(dimethyl-aminosulfonylamino-methyl)-phenoxy]-4-fluoro-2-(2-fluoro-4-iodo-phenylamino)-6-benzamide] | 7.20 | –
3 | NC(=O)c1c(Nc2ccc(I)cc2F)cc(F)cc1Oc1cccc(NS(=O)(=O)C2CCC2)c1 [Example 5.48, 2-(3-Cyclobutanesulfonyl-amino-phenoxy)-4-fluoro-6-(2-fluoro-4-iodo-phenylamino)-benzamide] | 7.77 | > 6.00
4 | CC(=O)NCc1cccc(Oc2cc(F)cc(Nc3ccc(I)cc3F)c2C(N)=O)c1 [Example 5.69, 2-[3-(Acetylamino-methyl)-phenoxy]-4-fluoro-6-(2-fluoro-4-iodo-phenylamino)-benzamide] | 7.74 | –
5 | NC(=O)c1c(Nc2ccc(I)cc2F)cc(F)cc1Oc1cccc(NS(=O)(=O)c2c[nH]cn2)c1 [Example 5.49, 4-Fluoro-2-(2-fluoro-4-iodo-phenylamino)-6-[3-(1H-imidazole-4-sulfonylamino)-phenoxy]-benzamide] | 7.80 | > 6.00
6 | Cn1cncc1C(=O)Nc1cccc(Oc2cc(F)cc(Nc3ccc(I)cc3F)c2C(N)=O)c1 [Example 5.82, 3-Methyl-3H-imidazole-4-carboxylic acid {3-[2-carbamoyl-5-fluoro-3-(2-fluoro-4-iodo-phenylamino)-phenoxy]-phenyl}-amide] | 7.30 | –
7 | CN(C)S(=O)(=O)Nc1cccc(Oc2cc(F)cc(Nc3ccc(I)cc3)c2C(N)=O)c1 [Example 2.16, 2-{3-[(dimethylsulfamoyl)amino]phenoxy}-4-fluoro-6-[(4-iodophenyl)amino] benzamide] | 7.33 | > 6.00
8 | NC(=O)c1c(Nc2ccc(I)cc2F)cc(F)cc1Oc1cccc(NS(=O)(=O)NCC(F)(F)F)c1 [Example 5.94, 4-fluoro-2-[(2-fluoro-4-iodophenyl)amino]-6-(3-{[(2,2,2-trifluoroethyl)-sulfamoyl]amino}phenoxy)benzamide] | 7.26 | –
9 | C[C@H](CO)NC(=O)c1c(Nc2ccc(I)cc2F)cc(F)cc1Oc1cccc(NS(=O)(=O)N(C)C)c1 [Example 4.20, 2-[3-[[(dimethylamino)sulfonyl]amino]phenoxy]--4-fluoro-6-[(2-fluoro-4-iodophenyl)amino]-N-((R)-2-hydroxy-1-methyl-ethyl)-benzamide] | 7.05 | –
10 | CCS(=O)(=O)N1CCC[C@@H]1COc1cc(F)cc(Nc2ccc(I)cc2F)c1C(N)=O [Example 5.33, 2-((R)-1-Ethanesulfonyl-pyrrolidin-2-ylmethoxy)-4-fluoro-6-(2-fluoro-4-iodo-phenylamino)-benzamide] | 7.04 | –
11 | C[C@@H](CO)NC(=O)c1c(Nc2ccc(I)cc2F)cc(F)cc1Oc1cccc(NS(=O)(=O)N(C)C)c1 [Example 4.21, 2-[3-[[(dimethylamino)sulfonyl]amino]phenoxy]--4-fluoro-6-[(2-fluoro-4-iodophenyl)amino]-N-((S)-2-hydroxy-1-methyl-ethyl)-benzamide] | 6.61 | –
12 | CC(O)(CO)CCOc1cc(F)cc(Nc2ccc(I)cc2F)c1C(N)=O (stereo not shown) [Example 6.2, 2-(3,4-Dihydroxy-3-methyl-butoxy)-4-fluoro-6-(2-fluoro-4-iodo-phenylamino)-benzamide] | 7.16 | –
13 | C[C@@H](O)CNC(=O)c1c(Nc2ccc(I)cc2F)cc(F)cc1Oc1cccc(NS(=O)(=O)N(C)C)c1 [Example 4.22, 2-[3-[[(dimethylamino)sulfonyl]amino]phenoxy]--4-fluoro-6-[(2-fluoro-4-iodophenyl)amino]-N-((R)-2-hydroxy-propyl)-benzamide] | 6.79 | –
